Experimental data as given in the supplement of paper PMC10627819.

Columns and labels:
S. aureus DSM 20231 [1] = assay: Bliss interaction score (quartile over a dose matrix) (fitness difference); higher = more antagonism (negative = synergy)
Outline: (§1)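 The Bliss score takes observed fitness and subtracts the expected fitness, calculated as a product of single-drug fitness values. Those single-drug values were inferred from the combination data. Fitness is OD595 at entry into stationary phase divided by the plate's robust no-drug mean, capped at 1, and the score is summarised by quartiles across technical, biological and donor/recipient replicates.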

B. subtilis 168 = assay: as above
Outline: as §1

S. pneumoniae D39V [2] = assay: as above
Outline: as §1

S. aureus Newman [3] = assay: as above
Outline: as §1

S. aureus DSM 20231 [4] = assay: fitness (endpoint OD595 vs no drug) (fraction); higher = more growth
Outline: (§2)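 Bacterial growth was followed in 384-well plates seeded at OD595 0.01, with 30 µl per well, or 55 µl for S. pneumoniae, in TSB, LB Lennox or CY at 37 °C. OD595 was read every 30 min for 14 h, and each reading had the first reading subtracted as background. Fitness is the background-corrected optical density at entry into stationary phase divided by the robust mean of the no-drug control wells. This ratio is capped at 1.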

S. pneumoniae D39V [5] = assay: as above
Outline: as §2

S. aureus Newman [6] = assay: as above
Outline: as §2
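Wherever Bliss interaction score (quartile over a dose matrix) is given: first quartile when negative (synergy) and third quartile when positive (antagonism).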

CO/N=C(\C(=O)N[C@@H]1C(=O)N2C(C(=O)[O-])=C(C[N+]3(C)CCCC3)CS[C@H]12)c1csc(N)n1 [Cefepime] + CN(N=O)C(=O)N[C@@H](C=O)[C@@H](O)[C@H](O)[C@H](O)CO [Streptozotocin]
Conditions	Bliss interaction score
B. subtilis 168	-0.0416
S. aureus DSM 20231 [1]	-0.0779
S. aureus Newman [3]	0.0304
S. pneumoniae D39V [2]	-0.0319

fitness
Conditions	first compound 0.007 µg/mL	first compound 0.014 µg/mL	first compound 0.028 µg/mL	first compound 0.125 µg/mL	first compound 0.25 µg/mL	first compound 0.5 µg/mL
S. aureus DSM 20231 [4], partner 0.15 µg/mL	–	–	–	0.789	0.705	0.721
S. aureus DSM 20231 [4], partner 0.3 µg/mL	–	–	–	0.667	0.645	0.713
S. aureus DSM 20231 [4], partner 0.6 µg/mL	–	–	–	0.589	0.588	0.61
S. aureus Newman [6], partner 0.15 µg/mL	–	–	–	0.814	0.765	0.682
S. aureus Newman [6], partner 0.3 µg/mL	–	–	–	0.717	0.641	0.66
S. aureus Newman [6], partner 0.6 µg/mL	–	–	–	0.505	0.482	0.506
S. pneumoniae D39V [5], partner 1.2 µg/mL	0.964	0.935	0.824	–	–	–
S. pneumoniae D39V [5], partner 2.4 µg/mL	0.987	0.993	0.923	–	–	–
S. pneumoniae D39V [5], partner 4.8 µg/mL	0.966	0.983	0.868	–	–	–

fitness, S. pneumoniae D39V [5], one replicate
Conditions	first compound 0.0078 µg/mL	first compound 0.0155 µg/mL	first compound 0.031 µg/mL
partner 1.2 µg/mL	0.984	0.953	0.186
partner 2.4 µg/mL	≥ 1	0.937	0.289
partner 4.8 µg/mL	0.956	0.895	0.0426

CO/N=C(\C(=O)N[C@@H]1C(=O)N2C(C(=O)[O-])=C(C[N+]3(C)CCCC3)CS[C@H]12)c1csc(N)n1 [Cefepime] + CN[C@@H]1[C@H](O)[C@H](NC)[C@H]2O[C@@]3(O)C(=O)C[C@@H](C)O[C@H]3O[C@@H]2[C@H]1O [Spectinomycin]
Conditions	Bliss interaction score
B. subtilis 168	-0.0538
S. aureus DSM 20231 [1]	-0.0966
S. aureus Newman [3]	-0.0659
S. pneumoniae D39V [2]	0.147

fitness
Conditions	first compound 0.007 µg/mL	first compound 0.014 µg/mL	first compound 0.028 µg/mL	first compound 0.125 µg/mL	first compound 0.25 µg/mL	first compound 0.5 µg/mL
S. aureus DSM 20231 [4], partner 4 µg/mL	–	–	–	0.755	0.729	0.851
S. aureus DSM 20231 [4], partner 8 µg/mL	–	–	–	0.865	0.849	0.861
S. aureus DSM 20231 [4], partner 16 µg/mL	–	–	–	0.806	0.764	0.778
S. aureus Newman [6], partner 4 µg/mL	–	–	–	0.835	0.809	0.724
S. aureus Newman [6], partner 8 µg/mL	–	–	–	0.864	0.805	0.742
S. aureus Newman [6], partner 16 µg/mL	–	–	–	0.847	0.766	0.682
S. pneumoniae D39V [5], partner 4 µg/mL	0.935	0.935	0.877	–	–	–
S. pneumoniae D39V [5], partner 8 µg/mL	0.943	0.974	0.873	–	–	–
S. pneumoniae D39V [5], partner 16 µg/mL	0.916	0.918	0.876	–	–	–

fitness, one replicate
Conditions	first compound 0.0078 µg/mL	first compound 0.0155 µg/mL	first compound 0.031 µg/mL	first compound 0.125 µg/mL	first compound 0.25 µg/mL	first compound 0.5 µg/mL
S. aureus DSM 20231 [4], partner 32 µg/mL	–	–	–	0.736	0.669	0.647
S. aureus DSM 20231 [4], partner 64 µg/mL	–	–	–	0.0956	0.0736	0.0704
S. aureus Newman [6], partner 32 µg/mL	–	–	–	0.418	0.372	0.182
S. aureus Newman [6], partner 64 µg/mL	–	–	–	0.0932	0.0802	0.0762
S. pneumoniae D39V [5], partner 4 µg/mL	≥ 1	0.988	0.577	–	–	–
S. pneumoniae D39V [5], partner 8 µg/mL	0.999	≥ 1	0.716	–	–	–
